We go through three compounds from patent US12534465B2, “5H-pyrrolo[3,2-d]pyrimidine-2,4-diamino compounds and antibody conjugates thereof” (SUTRO BIOPHARMA, INC., priority 2019, dated 2026).

For test [1], the target named is T1, mouse TLR7 (Mus musculus, UniProt P58681).
T1 construct: host or cells: HEK293
T1 sequence (P58681 27-1050): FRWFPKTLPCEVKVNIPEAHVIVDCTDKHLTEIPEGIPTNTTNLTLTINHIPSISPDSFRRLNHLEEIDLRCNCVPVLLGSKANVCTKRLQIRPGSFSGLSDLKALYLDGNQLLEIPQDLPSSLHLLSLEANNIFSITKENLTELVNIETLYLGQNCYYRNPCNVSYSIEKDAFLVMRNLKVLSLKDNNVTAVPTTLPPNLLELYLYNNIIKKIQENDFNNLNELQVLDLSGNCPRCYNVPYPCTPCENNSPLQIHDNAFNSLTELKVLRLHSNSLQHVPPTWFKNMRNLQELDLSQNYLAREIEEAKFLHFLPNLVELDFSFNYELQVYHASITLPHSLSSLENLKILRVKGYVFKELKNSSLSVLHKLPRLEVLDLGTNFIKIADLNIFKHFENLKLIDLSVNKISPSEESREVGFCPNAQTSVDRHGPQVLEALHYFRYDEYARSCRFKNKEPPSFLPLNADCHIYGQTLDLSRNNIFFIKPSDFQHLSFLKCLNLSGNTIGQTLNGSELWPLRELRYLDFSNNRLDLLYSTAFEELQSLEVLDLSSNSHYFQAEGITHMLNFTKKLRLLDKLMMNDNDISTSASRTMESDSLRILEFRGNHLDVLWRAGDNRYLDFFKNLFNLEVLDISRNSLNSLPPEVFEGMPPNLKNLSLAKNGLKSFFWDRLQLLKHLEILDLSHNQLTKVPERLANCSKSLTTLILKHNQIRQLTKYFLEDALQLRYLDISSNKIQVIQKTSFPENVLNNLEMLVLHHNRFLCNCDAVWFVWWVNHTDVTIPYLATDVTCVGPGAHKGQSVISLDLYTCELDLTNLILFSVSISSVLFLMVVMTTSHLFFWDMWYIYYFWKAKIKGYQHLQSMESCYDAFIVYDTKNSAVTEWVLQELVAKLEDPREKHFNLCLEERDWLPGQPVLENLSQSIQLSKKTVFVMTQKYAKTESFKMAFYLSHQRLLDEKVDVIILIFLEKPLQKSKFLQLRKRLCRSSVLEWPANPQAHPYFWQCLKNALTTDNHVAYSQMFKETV
The experiment in a line: HEK293-mouseTLR7 SEAP reporter assay (Example 8). The test is classed as cell-based. The conditions noted are these: HEK293-mTLR7 SEAP reporter cells, 24 hrs. As for the experimental part: In this example, the in vitro activity of compounds to activate human TLR7 (or human TLR8 or mouse TLR7) pathway was evaluated on HEK293 reporter cells transfected with human TLR7 (or human TLR8 or mouse TLR7) and an inducible SEAP (secreted embryonic alkaline phosphatase) reporter gene. The SEAP reporter gene is placed under the control of the IFN-β minimal promoter fused to five NF-κB and AP-1-binding sites. Stimulation with a TLR7 agonist activates NF-κB and AP-1 which induces the production of SEAP. Levels of SEAP were determined by HEK-Blue Detection medium.
The in vitro activity of compounds on TLR7 (human and mouse) and TLR8 (human only) reporter cell lines was assessed as follows. 5-(2-methoxy-4-(piperazin-1-ylmethyl)benzyl)-N4-pentyl-5H-pyrrolo[3,2-d]pyrimidine-2,4-diamine (Compound 1) is a compound used for comparison and has the structure shown below:
HEK293-humanTLR7 (hTLR7), HEK293-mouseTLR7 (mTLR7) and HEK293-humanTLR8 (hTLR8) reporter cell lines were purchased from Invivogen and cell lines were maintained in the manufacturer's recommended culture medium with required supplemental antibiotics. On the day of assay, the cells were harvested with Accutase and counted by the Vi-CELL Cell Viability Analyzers. Cells were resuspended in HEK blue detection medium and a total of 10,000 cells were seeded in each well of a 384-well flat bottom plate. Serial dilutions of test compounds (1:4 serial dilution starting from 5 μM) were added into treatment wells and assay plates were cultured at 37° C. in a CO2 incubator for 24 hrs. The plates were then read by spectrophotometry at 640 nm. Data was fitted with non-linear regression analysis, using a log(inhibitor) vs. response-variable slope, 3-parameter fit with GraphPad Prism. There result was reported in Table 1 as EC50 (the midpoint of the curve, or concentration at which 50% of the maximum effect was observed).
A general note: Reporter assays use an easily measured gene product as a stand-in for the process of interest.

The target in test [2] is T1, mouse TLR7. The experiment in a line: HEK293 SEAP reporter assay, TLR panel (Example 10). The conditions noted are these: 16 hrs. The test is classed as cell-based. From the text: In this example, the activity of the compound 10 to stimulate different human and mouse TLR pathways was investigated on HEK293 cells transfected with inducible SEAP (secreted embryonic alkaline phosphatase) reporter genes and also expressing different human TLRs (TLR2, TLR3, TLR4, TLR5, TLR7, TLR8, TLR9) or mouse TLRs (TLR2, TLR3, TLR4, TLR5, TLR7, TLR8, TLR13).
HEK293 reporter cell lines were purchased from Invivogen and cell lines were maintained in manufacture recommended culture medium with required supplemental antibiotics. On the day of assay, the cells were harvested with Accutase and counted by the Vi-CELL Cell Viability Analyzers. Cells were resuspended in HEK blue detection medium and a total of 10000 cells were seeded in each well of a 384-well flat bottom plate. Serial dilutions of compound 10 and compound 1 was added into treatment wells. Assay plates were cultured at 37° C. in a CO2 incubator for 16 hrs. HEK-Blue™ Detection medium changes to a purple/blue color in the presence of secreted SEAP, which can be detected by spectrophotometry at 620-655 nm. Data was fitted with non-linear regression analysis, using a log(inhibitor) vs. response-variable slope, 3-parameter fit with GraphPad Prism.

The EC50 is the midpoint of the concentration-response curve. Read a high EC50 as a less potent agent. As for `CCCCCNc1nc(N)nc2ccn(Cc3ccc(CN4CCNCC4)cc3OC)c12` [Compound 1, 5-(2-methoxy-4-(piperazin-1-ylmethyl)benzyl)-N4-pentyl-5H-pyrrolo[3,2-d]pyrimidine-2,4-diamine, reference compound], the EC50 stood at 4.6 nM on mouse TLR7 [1] and 2.6 nM at mouse TLR7 [2].
`CCCCCNc1nc(N)nc2ccn(Cc3ccc(CN4CC(NC)C4)cc3OC)c12` [Compound 2, 5-(2-methoxy-4-((3-(methylamino)azetidin-1-yl)methyl)benzyl)-N4-pentyl-5H-pyrrolo[3,2-d]pyrimidine-2,4-diamine] registered a 50% effective concentration (EC50) at mouse TLR7 [1] of 10.2 nM.
Regarding `CCCCCNc1nc(N)nc2ccn(Cc3ccc(CN4CC5(CNCCO5)C4)cc3OC)c12` [Compound 10, 5-[[2-methoxy-4-(5-oxa-2,8-diazaspiro[3.5]nonan-2-ylmethyl)phenyl]methyl]-N4-pentyl-pyrrolo[3,2-d]pyrimidine-2,4-diamine], the values for the concentration for a half-maximal effect (EC50) at mouse TLR7 [1] and on mouse TLR7 [2] were 3.7 nM and 22.9 nM, respectively.
